A short description of the data set: Continuous solution preparation: suspension passed through series of five micro-reactors (continuous dissolution). Particulars: solvent H2O; concentration 0.3 % wt. In kind it is physicochemical. An excerpt:
The resulting suspension was continuously passed through a series of five micro-reactors with microchannels having 500 micron diameter by means of an intensifier pump (MicroDeBEE) at a pressure of 1862 bar. […] The same experiment was repeated with the same setup for other pharmaceutical excipients and solvents. Trihalose is crystalline form and was used as a model for crystalline molecules to mimic API's.

The structures appear in SMILES notation.

`CC(C)C[C@H](N)C(=O)O` [L-Leucine]: the Continuous dissolution entry is reported as “YES”.

The record behind these values is patent US11752105B2, “Spray drying process with continuous preparation of spray solution” (Hovione Scientia Limited, priority 2018, dated 2023).
